12 compounds from ChEMBL document CHEMBL1201862, “PubChem BioAssay data set” (2004) can be followed below.

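Step 1: Grow cells in 96-well plates. Step 2: Expose to compound for 48 hours at 5 concentrations. Step 3: Interpolate endpoints linearly; if unreached, use highest concentration. GI50 is the concentration that inhibits growth by half.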 Active and inactive are the calls of the source. Cut-off read from the data, not from the text of the source: active = GI50 up to about 1.1 µM and inactive = higher.

Holding throughout (experiment): NCI tumour cell line growth inhibition, 48 h
Assay [1] concerns HCC 2998.
Assay [2] concerns DU-145.
Assay [3] concerns K562.
Assay [4] has as its system NCI-H460.
Assay [5] has as its system CCRF-CEM.
For assay [6], the system named is HCT-15.
The subject of assay [7] is MDA-MB-435.
The test system of assay [8] is CAKI-1.
Assay [9] deals with UACC-257.
Assay [10] concerns SF-295.
In assay [11] the test system is NCI/ADR-RES.
Assay [12] relates to 786-0.
The test system of assay [13] is SNB-19.
For assay [14], the system named is T47D.
The subject of assay [15] is HT-29.
For assay [16], the system named is HOP-62.
Assay [17] concerns M14.
The test system of assay [18] is SK-MEL-2.
Assay [19] concerns SF-539.

Regarding `O=C1OC(c2ccccc2)=N/C1=C\c1ccc(Cl)cc1`, the GI50 is > 100 µM (inactive) in assay [1]; > 100 µM (inactive) in [2]; > 100 µM (inactive) in [3]; > 100 µM (inactive) in assay [4]; 61.5 µM (inactive) in assay [5]; greater than 100 µM in assay [6]. The GI50 in [7] was > 100 µM (inactive); in assay [8] it was > 100 µM (inactive); in assay [9], > 100 µM (inactive); in assay [10], > 100 µM (inactive); in assay [11], 66.2 µM (inactive); in assay [12] it was > 100 µM (inactive). In addition, the GI50 in assay [13], in assay [14], in assay [15], in [16], in assay [17] and in assay [18] was > 100 µM (inactive) each time.

Take `COc1ccccc1Nc1nc(N)nc(N)c1N=O`: the GI50 in assay [19], in assay [1], in assay [2], in [3], in [4] and in [5] was > 100 µM (inactive) in each case. In addition, the GI50 in assay [6] was greater than 100 µM; in assay [7], > 100 µM (inactive); in assay [9], > 100 µM (inactive); in assay [10] it was > 100 µM (inactive); in assay [11], > 100 µM (inactive); in assay [12] it was > 100 µM (inactive). Moreover, the GI50 in [13] was > 100 µM (inactive); in [14], 2.82 µM (inactive); in assay [15] it was 78.2 µM (inactive); in assay [16], > 100 µM (inactive); in [17], 64 µM (inactive); in [18] it was > 100 µM (inactive).

Consider `CCCCOC(=O)C(NC(C(=O)OCCCC)c1cc(C(C)(C)C)c(O)c(C(C)(C)C)c1)c1cc(C(C)(C)C)c(O)c(C(C)(C)C)c1` (stereo unspecified), for which the GI50 in assay [19] was > 100 µM (inactive); in assay [2], > 100 µM (inactive); in [3], 56.9 µM (inactive); in assay [5], 73.8 µM (inactive); in [6] it was greater than 100 µM; in [7], > 100 µM (inactive). The GI50 in assay [8], in assay [9], in [10], in assay [11], in assay [12] and in assay [13] was > 100 µM (inactive) each time. For the same compound, the GI50 in assay [14] was > 100 µM (inactive); in [15] it was 76 µM (inactive); in assay [16], > 100 µM (inactive); in [17] it was > 100 µM (inactive); in [18], > 100 µM (inactive).

With `O=[N+]([O-])c1cccc(/C=N/NC2=CS(=O)(=O)C=C2)c1`, the GI50 in assay [19] was > 100 µM (inactive); in [2], > 100 µM (inactive); in assay [3] it was > 100 µM (inactive); in assay [4], > 100 µM (inactive); in assay [5], > 100 µM (inactive); in assay [6] it was greater than 100 µM. The GI50 in assay [7], in assay [8], in assay [9], in [10], in assay [11] and in assay [12] was > 100 µM (inactive) throughout. Also, the GI50 in assay [13], in [14], in [15], in assay [16], in assay [17] and in assay [18] was > 100 µM (inactive) each time.

As for `COC(=O)Nc1nc2cc(NS(=O)(=O)c3ccc(F)cc3)ccc2[nH]1`, the GI50 in assay [19] was 12.2 µM (inactive); in [2], 39.2 µM (inactive); in [3], 4.65 µM (inactive); in assay [4] it was 24.7 µM (inactive); in assay [5], 13.7 µM (inactive); in [6] it was 8.22 µM. Also, the GI50 is 2.65 µM (inactive) in assay [7]; 23.6 µM (inactive) in assay [8]; 14.5 µM (inactive) in [10]; 13.3 µM (inactive) in assay [11]; 40 µM (inactive) in assay [12]; 6.46 µM (inactive) in [13]. The GI50 in assay [14] was > 100 µM (inactive); in assay [15] it was 7.73 µM (inactive); in assay [16], 43.3 µM (inactive); in [17], 7.48 µM (inactive); in [18], 31 µM (inactive).

`CC(=O)Nc1ccc2c(c1)/C(=C\c1ccc([N+](C)(C)C)cc1)c1ccccc1-2`: the GI50 in assay [1] was 55.6 µM (inactive); in assay [2], 89.3 µM (inactive); in assay [3], 29.6 µM (inactive); in [4], 34.9 µM (inactive); in assay [5], 22.5 µM (inactive); in assay [6] it was greater than 100 µM. Besides, the GI50 in assay [7] was 36.2 µM (inactive); in [8], > 100 µM (inactive); in [9], 30.6 µM (inactive); in assay [10] it was 46.1 µM (inactive); in [11] it was > 100 µM (inactive); in assay [12], 77.8 µM (inactive). Also, the GI50 in assay [13] is 23.6 µM (inactive); in assay [14] it was 23.2 µM (inactive); in [15], 35.5 µM (inactive); in assay [16] it was 48.3 µM (inactive); in assay [17] it was 16 µM (inactive).

`c1cnn(C23C4C5C6C4C2C6C53)c1` (stereo unspecified): the GI50 in assay [19], in [1], in assay [2], in assay [3], in assay [4] and in [5] was > 100 µM (inactive) in each case. Also, the GI50 in assay [6] was greater than 100 µM; in [7], > 100 µM (inactive); in [9], > 100 µM (inactive); in assay [10] it was > 100 µM (inactive); in assay [11], > 100 µM (inactive); in assay [12] it was > 100 µM (inactive). The GI50 in assay [13], in assay [14], in assay [15], in assay [16] and in assay [18] was > 100 µM (inactive) throughout.

As for `CC12CC3c4ccccc4CN1C3(c1ccccc1)OC2=O` (stereo unspecified), the GI50 was > 100 µM (inactive) in assay [19]; > 100 µM (inactive) in assay [2]; > 100 µM (inactive) in assay [5]; greater than 100 µM in [6]; > 100 µM (inactive) in assay [7]; > 100 µM (inactive) in assay [8]. Moreover, the GI50 in assay [9], in assay [10], in assay [11], in assay [12], in assay [13] and in [14] was > 100 µM (inactive) each time. The GI50 in assay [15], in assay [16], in assay [17] and in assay [18] was > 100 µM (inactive) each time.

For the compound `Cc1ccc(O)c(C2=CC(c3cccc(Br)c3)SC(=N)N2)c1` (stereo unspecified), the GI50 in [19] is 22.4 µM (inactive); in [2] it was 34.5 µM (inactive); in assay [3], 24.5 µM (inactive); in assay [4], 20.5 µM (inactive); in assay [5] it was 25.6 µM (inactive); in assay [6], 14.5 µM. Moreover, the GI50 in [7] is 18.7 µM (inactive); in assay [8], 28.4 µM (inactive); in assay [9], 20.1 µM (inactive); in assay [10], 21.2 µM (inactive); in assay [11] it was 27.9 µM (inactive); in assay [12], 23.7 µM (inactive). Also, the GI50 in assay [13] is 13.6 µM (inactive); in assay [14] it was 26.5 µM (inactive); in [15], 33.7 µM (inactive); in [16], 21.6 µM (inactive); in [17], 24.3 µM (inactive); in [18], 18.2 µM (inactive).

Regarding `CN1/C(=C/C=C/C=C/C=C2C(=O)c3ccccc3C2=O)C(C)(C)c2ccccc21`, the GI50 in assay [19] was 26.1 µM (inactive); in assay [2], 43.4 µM (inactive); in assay [3] it was 13.3 µM (inactive); in assay [4] it was 53.5 µM (inactive); in assay [5] it was > 100 µM (inactive); in [6] it was 40.2 µM. For the same compound, the GI50 in assay [7] is 54.5 µM (inactive); in assay [8], 44 µM (inactive); in assay [9] it was 17.5 µM (inactive); in assay [10], 35.5 µM (inactive); in assay [11], 76.2 µM (inactive); in [12] it was > 100 µM (inactive). Further, the GI50 is > 100 µM (inactive) in assay [13]; 6.76 µM (inactive) in assay [14]; > 100 µM (inactive) in assay [15]; > 100 µM (inactive) in assay [16]; 37.5 µM (inactive) in assay [17]; 20.3 µM (inactive) in assay [18].

With `Cc1cc(C)c2c(-c3ccccc3)cc(=O)[nH]c2c1`, the GI50 in assay [1] is > 100 µM (inactive); in assay [2], > 100 µM (inactive); in assay [3], > 100 µM (inactive); in assay [4], > 100 µM (inactive); in [5], > 100 µM (inactive); in [6], greater than 100 µM. Besides, the GI50 in assay [7], in [9], in assay [10], in assay [11], in assay [12] and in assay [14] was > 100 µM (inactive) throughout. The GI50 in assay [15], in assay [16], in assay [17] and in assay [18] was > 100 µM (inactive) throughout.

On to `O=C(O)c1cc2ccccc2c(/N=N/c2ccccc2)c1O`, for which the GI50 in [2] was 14.5 µM (inactive); in assay [3], 36.8 µM (inactive); in assay [5], 38.5 µM (inactive); in [6] it was 27.9 µM; in [7], 15.1 µM (inactive); in [8], 35.6 µM (inactive). Further, the GI50 in assay [9] is 15.6 µM (inactive); in [10], 12.4 µM (inactive); in [11], 27.2 µM (inactive); in [12] it was 33.5 µM (inactive); in assay [13], 26.1 µM (inactive); in assay [14], 38.1 µM (inactive). Besides, the GI50 in assay [15] is 11.8 µM (inactive); in assay [16] it was 14.8 µM (inactive); in [17] it was 14.9 µM (inactive); in assay [18], > 10 µM (inactive).
